Assay results: ChEMBL document CHEMBL5126628, “Aspersterols A-D, Ergostane-Type Sterols with an Unusual Unsaturated Side Chain from the Deep-Sea-Derived Fungus Aspergillus unguis” (J Nat Prod, 2022)
Counter-ions that a name gives are not always drawn.

Tests used:
RAW264.7 [1] = assay: Antiinflammatory activity in mouse RAW264.7 cells assessed as reduction in LPS-induced IL6 production […]; type: functional, cell-based; settings: DDE = dose-dependent effect
PC-3 = assay: Growth inhibition of human PC-3 cells by SRB assay; type: functional
HCT-15 = assay: Growth inhibition of human HCT-15 cells by SRB assay; type: functional
RAW264.7 [2] = assay: Antiinflammatory activity in mouse RAW264.7 cells assessed as reduction in LPS-induced iNOS mRNA expression […]; type: functional, cell-based; settings: DDE = dose-dependent effect
NCI-H23 = assay: Growth inhibition of human NCI-H23 cells by SRB assay; type: functional
MDA-MB-231 = assay: Growth inhibition of human MDA-MB-231 cells by SRB assay; type: functional
ACHN = assay: Growth inhibition of human ACHN cells by SRB assay; type: functional
RAW264.7 [3] = assay: Antiinflammatory activity in mouse RAW264.7 cells assessed as reduction in LPS-induced nitric oxide production by griess assay; type: functional, cell-based
RAW264.7 [4] = assay: Antiinflammatory activity in mouse RAW264.7 cells assessed as reduction in LPS-induced IL6 mRNA expression […]; type: functional, cell-based; settings: DDE = dose-dependent effect
RAW264.7 [5] = assay: Antiinflammatory activity in mouse RAW264.7 cells assessed as reduction in LPS-induced nitrite production by griess assay; type: functional, cell-based; settings: DDE = dose-dependent effect
NUGC-3 = assay: Growth inhibition of human NUGC-3 cells by SRB assay; type: functional

GI50 (PC-3) | GI50 (HCT-15) | GI50 (NCI-H23) | GI50 (MDA-MB-231) | GI50 (ACHN) | IC50 (RAW264.7 [3]) | Compound | inhibition (RAW264.7 [1]) | inhibition (RAW264.7 [2]) | inhibition (RAW264.7 [4]) | inhibition (RAW264.7 [5]) | GI50 (NUGC-3)
13.8 µM | 13.2 µM | 10.3 µM | 13.5 µM | 12.5 µM | 11.6 µM | CC(/C=C/[C@H](C)C(C)C)=C1\CC[C@H]2C3=CC(=O)[C@@]4(O)C[C@@H](O)CC[C@]4(C)[C@H]3CC[C@]12C | Dde | Dde | Dde | Dde | 11.5 µM
> 30 µM | > 30 µM | > 30 µM | > 30 µM | > 30 µM | 19.5 µM | CC(/C=C/[C@H](C)C(C)C)=C1\CC[C@H]2C3=CC(=O)[C@@]4(O)C[C@@H](O)CC[C@]4(C)[C@@]3(O)CC[C@]12C |  |  |  |  | > 30 µM

Second part, the molecule before the results:

Compound | GI50 (PC-3) | GI50 (HCT-15) | GI50 (NCI-H23) | GI50 (MDA-MB-231) | GI50 (ACHN) | IC50 (RAW264.7 [3]) | inhibition (RAW264.7 [1]) | inhibition (RAW264.7 [2]) | inhibition (RAW264.7 [4]) | inhibition (RAW264.7 [5]) | GI50 (NUGC-3)
CC(/C=C/[C@H](C)C(C)C)=C1\[C@H](O)C[C@H]2c3cc4c(c(C)c3CC[C@]12C)CC[C@H](O)C4 | 3.9 µM | 4.5 µM | 4.4 µM | 3.4 µM | 4.3 µM |  |  |  |  |  | 4.2 µM
COc1cccc2c1C(=O)c1c(O)c3c(c(O)c1C2=O)C[C@@](O)(C(=O)CO)C[C@@H]3O[C@H]1C[C@H](N)[C@H](O)[C@H](C)O1 [DOXORUBICIN HYDROCHLORIDE] | 0.09 µM | 0.09 µM | 0.08 µM | 0.08 µM | 0.07 µM |  |  |  |  |  | 0.08 µM
CC(/C=C/[C@H](C)C(C)C)=C1\[C@H](O)C[C@H]2C3=CC(=O)[C@@]4(O)C[C@@H](O)CC[C@]4(C)[C@H]3CC[C@]12C | > 30 µM | > 30 µM | > 30 µM | > 30 µM | > 30 µM | 14.5 µM |  |  |  |  | > 30 µM
